Experimental data taken from ChEMBL document CHEMBL1201862, “PubChem BioAssay data set” (2004).
Calls of active or inactive are those of the source.

Key:
[1] = target: T1, Apoptotic protease-activating factor 1 (Homo sapiens, UniProt O14727); type: functional
T1 sequence (O14727 whole entry): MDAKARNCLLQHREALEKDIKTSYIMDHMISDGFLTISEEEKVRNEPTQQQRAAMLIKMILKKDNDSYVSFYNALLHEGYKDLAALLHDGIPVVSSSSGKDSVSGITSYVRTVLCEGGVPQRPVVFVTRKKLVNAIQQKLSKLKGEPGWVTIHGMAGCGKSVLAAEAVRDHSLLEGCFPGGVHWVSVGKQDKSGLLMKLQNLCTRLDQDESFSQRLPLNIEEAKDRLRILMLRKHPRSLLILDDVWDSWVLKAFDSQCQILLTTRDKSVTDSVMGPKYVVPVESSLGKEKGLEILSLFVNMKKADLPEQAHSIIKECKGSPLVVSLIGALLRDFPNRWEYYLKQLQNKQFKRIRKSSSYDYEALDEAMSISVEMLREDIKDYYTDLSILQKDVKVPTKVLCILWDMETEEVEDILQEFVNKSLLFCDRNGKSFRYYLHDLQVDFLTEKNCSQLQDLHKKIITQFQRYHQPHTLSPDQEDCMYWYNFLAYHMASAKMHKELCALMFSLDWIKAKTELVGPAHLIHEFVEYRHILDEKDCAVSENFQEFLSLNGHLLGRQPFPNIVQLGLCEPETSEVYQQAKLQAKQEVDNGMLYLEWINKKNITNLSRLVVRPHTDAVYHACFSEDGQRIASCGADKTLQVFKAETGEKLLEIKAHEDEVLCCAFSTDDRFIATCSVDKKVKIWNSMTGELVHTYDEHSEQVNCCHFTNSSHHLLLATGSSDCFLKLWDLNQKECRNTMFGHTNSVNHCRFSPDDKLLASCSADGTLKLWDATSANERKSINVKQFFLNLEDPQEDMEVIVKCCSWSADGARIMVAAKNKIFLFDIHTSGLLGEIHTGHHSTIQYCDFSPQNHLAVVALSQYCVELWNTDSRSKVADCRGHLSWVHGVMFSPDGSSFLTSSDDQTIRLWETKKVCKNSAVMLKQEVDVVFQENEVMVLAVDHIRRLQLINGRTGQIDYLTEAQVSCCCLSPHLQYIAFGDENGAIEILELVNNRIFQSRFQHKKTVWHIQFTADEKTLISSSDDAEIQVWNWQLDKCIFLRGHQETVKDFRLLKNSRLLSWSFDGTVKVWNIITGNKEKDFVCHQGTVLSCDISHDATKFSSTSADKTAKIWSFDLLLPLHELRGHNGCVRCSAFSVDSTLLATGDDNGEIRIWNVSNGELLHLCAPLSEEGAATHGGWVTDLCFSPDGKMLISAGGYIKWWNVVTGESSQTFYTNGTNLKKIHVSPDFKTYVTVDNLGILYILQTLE

Protein RecA = target: T2, Protein RecA (Mycobacterium tuberculosis, UniProt P9WHJ3); experiment: Fluorescence Cell-Free Homogeneous Dose Retest to Identify Inhibitors of RecA-Intein Splicing Activity. [Related pubchem assays (depositor defined):AID2097, AID2223, AID489010, AID492950]; type: functional
T2 sequence (P9WHJ3 whole entry): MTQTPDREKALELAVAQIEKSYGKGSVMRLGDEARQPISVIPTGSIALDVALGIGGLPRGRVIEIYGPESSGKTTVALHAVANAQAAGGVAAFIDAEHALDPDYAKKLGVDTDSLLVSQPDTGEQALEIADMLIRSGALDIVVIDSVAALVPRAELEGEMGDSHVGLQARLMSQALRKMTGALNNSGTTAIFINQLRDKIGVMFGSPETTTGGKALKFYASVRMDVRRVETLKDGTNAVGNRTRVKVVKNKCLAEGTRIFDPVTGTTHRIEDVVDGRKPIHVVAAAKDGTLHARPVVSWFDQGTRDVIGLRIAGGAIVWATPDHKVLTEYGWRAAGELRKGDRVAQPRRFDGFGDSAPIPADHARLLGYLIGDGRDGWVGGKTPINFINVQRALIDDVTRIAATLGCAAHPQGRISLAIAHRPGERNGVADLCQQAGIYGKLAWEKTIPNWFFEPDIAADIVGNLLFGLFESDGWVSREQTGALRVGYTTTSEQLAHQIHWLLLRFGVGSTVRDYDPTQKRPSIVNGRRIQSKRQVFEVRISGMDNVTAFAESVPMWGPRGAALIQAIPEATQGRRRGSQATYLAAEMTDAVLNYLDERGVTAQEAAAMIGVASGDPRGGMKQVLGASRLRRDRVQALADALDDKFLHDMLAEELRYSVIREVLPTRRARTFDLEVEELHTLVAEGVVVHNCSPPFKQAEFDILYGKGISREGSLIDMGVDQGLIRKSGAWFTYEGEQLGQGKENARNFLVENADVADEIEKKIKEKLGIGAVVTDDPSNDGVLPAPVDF

[2] = HepG2 cell cytotoxicity, dose response, cytotoxicity control, plate reader, cherry-pick, antagonist series (AID 743416); type: functional, cell-based
[3] = LGR2 antagonists, dose response, cell-based, HEK293, CRE-luciferase reporter, cherry pick, set 2 (AID 743343); type: functional;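 also: transfected cells were stimulated with diluted bursicon conditioned medium after compound addition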
[4] = MC4R antagonists, dose response, counter-screen for LGR2 antagonist project, cell-based, plate reader, cherry pick (AID 743444); type: functional;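 also: transfected HEK 293 cells stimulated with alpha-MSH peptide; potency of inhibitors of the alpha-MSH evoked signal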
[5] = target: T3, Tyrosyl-DNA phosphodiesterase 2 (Homo sapiens, UniProt O95551); experiment: human TDP2 enzyme inhibitors, dose response, biochemical, epi absorbance, IC50 (AID 743297)
T3 sequence (O95551 whole entry): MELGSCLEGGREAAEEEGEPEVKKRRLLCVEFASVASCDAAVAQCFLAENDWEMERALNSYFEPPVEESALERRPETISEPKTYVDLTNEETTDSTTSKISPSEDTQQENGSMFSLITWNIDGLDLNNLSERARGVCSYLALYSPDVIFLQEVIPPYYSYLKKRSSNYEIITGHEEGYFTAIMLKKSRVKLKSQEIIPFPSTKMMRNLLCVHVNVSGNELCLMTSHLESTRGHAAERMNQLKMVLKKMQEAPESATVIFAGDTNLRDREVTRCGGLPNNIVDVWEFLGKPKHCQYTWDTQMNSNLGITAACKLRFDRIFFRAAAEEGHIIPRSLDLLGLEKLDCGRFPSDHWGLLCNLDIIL

| SMILES | IC50 [1] | EC50 (Protein RecA) | AC50 [2] | AC50 [3] | AC50 [4] | IC50 [5] |
| --- | --- | --- | --- | --- | --- | --- |
| O=c1[nH]c(N2CCOCC2)cc2ccccc12 | 8.83 µM (active) | > 380 µM (inconclusive) | – | – | – | – |
| O=[N+]([O-])c1ccc(Sc2nc3ccccc3o2)c([N+](=O)[O-])c1 | – | 1.5 µM (active) | 6.16 µM (active) | 24.9 µM (active) | 28.8 µM (active) | – |
| CCC(COC)Oc1cc(NCc2ccccc2)c2ncn(C(C)C)c2c1 (configuration not stated) | 16.7 µM (active) | – | 19.6 µM (active) | 23.1 µM (active) | 33.5 µM (active) | > 42.8 µM (inactive) |
| O=C1c2ccccc2C(=O)C12OC2c1cccc2ccccc12 (configuration not stated) | – | – | – | – | – | 5.07 µM (active) |
